# Laboratory results taken from patent publication US9809623B2, “α4β7 peptide monomer and dimer antagonists” (Protagonist Therapeutics, Inc., priority 2014, dated 2017).
# Numbered stars: 1 amine (or outer) side, 2 acyl side, 3 side chain; on linkers, the order of the positions; unused ones are H or OH. Bridge positions count the residues as written; N and C are the ends. Square brackets hold non-standard residues; d marks the D form. Peptide text beside a SMILES is read from it. I, II: the chains in the order shown. X1 = O=C(CCOCCOCCOCCOCCOCCOCCOCCOCCOCCOCCOCCOCCOCCOCCOCCOCCOCCOCCOCCOCCOCCOCCOCCOCCOCCOCCC(=O)[*:2])[*:1]; NMeR = CN[C@@H](CCCNC(=N)N)C(=O)O
# Key:
# [1] = test system: cell types in human whole blood; experiment: FACS binding specificity in human whole blood; assay type: cell-based; conditions: 1 nM, 1 mM MnCl2
# Description: To further evaluate the selectivity of Peptide X in human blood, the fluorescent dye Alexa 647 was conjugated to Peptide X at the same position used for attaching biotin. […] Heparinized human whole blood was supplemented with 1 mM MnCl2, and stained with the Peptide X-Alexa 647 conjugate or biotinylated vedolizumab for 1 hour at room temperature. The samples were fixed (red blood cells lysed) and washed. The vedolizumab samples were stained separately with streptavidin Alexa 647 for stain for 30 minutes at room temperature. FACS analysis was used to assess binding of the peptide or vedolizumab to a broad panel of cell types including NK cells, basophils, monocytes, eosinophils, neutrophils, CD4 naïve T cells, CD4 memory T cells, CD8 naïve T cells, CD8 memory T cells, and B cells. […] The binding specificity for vedolizmab shown in Table 7 is also very similar to that reported in the literature (Soler et al, JPET 330:864-875, 2009).
# αEβ7 integrin = experiment: FACS binding in cynomolgus monkey blood (α4β7 / αEβ7 expressing cells); assay type: cell-based; conditions: cyno blood, 1 nM
# Description: Blood from cynomolgus monkeys was also analyzed by FACS.
# Binding to αEβ7 integrin in cyno blood was also tested. Cyno blood was incubated with 1 nM Peptide X-Alexa 647, and cells expressing α4β7 or αEβ7 were analyzed by FACS. […] Binding to α4β7 was specific, because it could be blocked in the presence of a large excess (1 uM) of unlabeled Peptide X. Therefore under these conditions, it was concluded that Peptide X binds α4β7, not αEβ7.
# α4β7 integrin = α4β7 integrin (Homo sapiens, UniProt P13612+P26010, DEL724-798); experiment: Surface plasmon resonance (SPR), binding of soluble α4β7 integrin to immobilized biotin-labeled ligand
# Chain of α4β7 integrin (P13612 34-977 limits assumed, stated change not applied): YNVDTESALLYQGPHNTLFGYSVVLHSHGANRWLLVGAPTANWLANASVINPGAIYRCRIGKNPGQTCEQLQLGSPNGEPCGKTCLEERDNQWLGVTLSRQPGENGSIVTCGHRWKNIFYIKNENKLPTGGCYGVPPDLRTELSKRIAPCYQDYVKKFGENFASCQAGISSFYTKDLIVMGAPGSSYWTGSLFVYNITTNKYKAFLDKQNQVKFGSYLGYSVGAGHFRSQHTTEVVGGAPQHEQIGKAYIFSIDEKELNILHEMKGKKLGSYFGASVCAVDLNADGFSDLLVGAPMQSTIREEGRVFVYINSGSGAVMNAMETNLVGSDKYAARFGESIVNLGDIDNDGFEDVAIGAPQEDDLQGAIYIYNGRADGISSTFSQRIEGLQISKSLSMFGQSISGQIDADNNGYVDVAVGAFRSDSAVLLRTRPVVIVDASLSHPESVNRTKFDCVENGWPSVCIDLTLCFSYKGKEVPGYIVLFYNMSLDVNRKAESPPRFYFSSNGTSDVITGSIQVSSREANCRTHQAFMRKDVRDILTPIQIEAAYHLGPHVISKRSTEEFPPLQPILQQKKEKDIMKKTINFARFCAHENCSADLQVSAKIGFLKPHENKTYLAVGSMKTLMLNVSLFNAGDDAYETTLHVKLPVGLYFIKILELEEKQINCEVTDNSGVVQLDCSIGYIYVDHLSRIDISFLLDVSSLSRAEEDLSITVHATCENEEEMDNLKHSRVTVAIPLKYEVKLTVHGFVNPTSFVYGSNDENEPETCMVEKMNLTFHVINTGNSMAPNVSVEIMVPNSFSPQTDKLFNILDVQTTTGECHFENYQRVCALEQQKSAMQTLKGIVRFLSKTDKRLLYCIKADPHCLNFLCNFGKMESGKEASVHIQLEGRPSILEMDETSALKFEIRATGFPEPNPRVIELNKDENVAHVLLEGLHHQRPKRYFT
# Chain of α4β7 integrin (P26010 20-723 limits assumed, stated change not applied): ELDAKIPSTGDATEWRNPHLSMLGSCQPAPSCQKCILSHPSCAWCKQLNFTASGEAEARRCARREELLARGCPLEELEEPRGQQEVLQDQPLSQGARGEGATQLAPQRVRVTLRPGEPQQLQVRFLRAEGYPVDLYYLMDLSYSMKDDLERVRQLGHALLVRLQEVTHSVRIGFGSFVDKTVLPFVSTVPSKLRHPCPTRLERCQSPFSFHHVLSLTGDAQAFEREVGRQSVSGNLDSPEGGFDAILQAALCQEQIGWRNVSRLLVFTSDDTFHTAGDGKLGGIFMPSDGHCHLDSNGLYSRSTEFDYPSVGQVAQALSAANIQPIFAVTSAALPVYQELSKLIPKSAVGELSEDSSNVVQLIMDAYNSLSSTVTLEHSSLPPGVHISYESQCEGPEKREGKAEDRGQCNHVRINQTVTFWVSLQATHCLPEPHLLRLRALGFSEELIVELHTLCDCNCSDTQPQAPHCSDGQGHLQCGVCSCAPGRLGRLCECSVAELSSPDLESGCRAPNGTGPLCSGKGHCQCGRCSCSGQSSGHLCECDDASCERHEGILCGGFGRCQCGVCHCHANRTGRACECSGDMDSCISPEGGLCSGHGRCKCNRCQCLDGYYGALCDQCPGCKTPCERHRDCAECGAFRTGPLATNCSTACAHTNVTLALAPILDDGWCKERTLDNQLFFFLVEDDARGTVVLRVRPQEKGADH
# Excerpt: Surface plasmon resonance (SPR) was used to further evaluate the binding properties of Peptide X. An analog of Peptide X (Peptide X-biotin), which contains a biotin group attached to Peptide X via a PEG linker, was synthesized. Another peptide dimer having the following structure, which is closely related to Peptide X, was also synthesized and biotin-labeled:
# • (Peptide Z). Vedolizumab was also chemically biotinylated. Peptide X-biotin, Peptide Z-biotin, or biotin-labeled vedolizumab antibody was immobilized to a streptavidin coated SPR chip, and the binding of soluble α4β7 integrin was measured. […] This half-life is quite long, and may be caused by a tight association between the peptide and the bound Mn^2+ metal ion on the integrin. […] In addition, the KD for Peptide X-biotin was substantially lower than that for Peptide Z-biotin.
# [2] = Simulated Intestinal Fluid (SIF) Stability Assay; assay type: in vitro ADME, porcine; conditions: pig, simulated intestinal fluid (SIF) with 1% porcine pancreatin, pH 6.5, Table 4-C, t1/2; > means assay stopped at that time; read-out: SIF (porcine) Min
# How it was run: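 Intestinal stability: percent peptide remaining over time, by LC-MS/MS peak-area ratio to internal standard, fitted to first-order decay for half-life. Conditions: 22 μM peptide, 1% pancreatin in pH 6.5 blank FASSIF, 37 °C.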
# [3] = Simulated Gastric Fluid (SGF) Assay; assay type: in vitro ADME; conditions: pig, simulated gastric fluid (SGF) with porcine pepsin, pH 2; Table 4-C, t1/2
# Description: SGF was prepared by adding 20 mg NaCl, 32 mg porcine pepsin (MP Biochemicals, catalog 02102599), and 70 μl HCl to 10 ml water (final pH=2). Aliquots of SGF (0.5 ml each) were pre-warmed at 37° C. For each peptide tested, to start the reaction, 1 μl of peptide stock solution (10 mM in DMSO) was added to 0.5 ml SGF and thoroughly mixed such that the final peptide concentration was 20 μM. The reactions were incubated at 37° C. with gentle shaking. At each time point (0, 15, 30, 60 min), 50 μl aliquots were removed and added to 200 ul acetonitrile containing 0.1% formic acid to quench the reaction. Samples were stored at 4° C. until the end of the experiment and centrifuged at 10,000 rpm for 5 minutes. Aliquots of the supernatant were removed, diluted 1:1 into distilled water containing internal standard, and analyzed by LCMS/MS. Percent remaining at each timepoint was calculated based on the peak area response ratio of test compound to internal standard. Time 0 was set to 100%, and all later timepoints were calculated relative to time 0. Half-lives were calculated by fitting to a first-order exponential decay equation using GraphPad.
# Plasma Stability Assay = assay type: in vitro ADME; conditions: rat, Table 4-C, t1/2
# Description: 0.5 mL of rat plasma (one tube per peptide, volume depends on how many time points are to be collected, 50 μL per time point) was added to each well of a 96-well polypropylene plate, and the tubes were incubated in a heated water bath, preset to 37° C. with gentle shaking. 1 μL of 10 mM peptide stock solution was added to each tub, and then 200 μL of Acetonitrile w/0.1% Formic Acid was added to each tube (1:4). Samples were collected at the following time points: 0, 10, 30, 45, 60, 120, 180 mins. When all time points were collected, the plate was centrifuged at 5000 rpm for 5 mins. LCM analysis was performed by pipetting 100 μL of each sample to appropriate well of a 96-well deep plate. 100 μL of an internal standard peptide (1 ug/mL) was added in Mobile Phase A to each well. The plate was vortexed and injected
smiles,measurement,setting,value
"CC(=O)N[C@@H]1C(=O)N(C)[C@@H](CCCNC(=N)N)C(=O)N[C@@H](CO)C(=O)N[C@@H](CC(=O)O)C(=O)N[C@@H]([C@@H](C)O)C(=O)N[C@@H](CC(C)C)C(=O)N[C@H](C(=O)N[C@@H](Cc2ccc(C(C)(C)C)cc2)C(=O)N[C@@H](CCC(=O)O)CC(=O)N[C@H](CCCCNC(=O)CN(CC(=O)NCCCC[C@@H](NC(=O)C[C@H](CCC(=O)O)NC(=O)[C@H](Cc2ccc(C(C)(C)C)cc2)NC(=O)[C@H]2NC(=O)[C@H](CC(C)C)NC(=O)[C@H]([C@@H](C)O)NC(=O)[C@H](CC(=O)O)NC(=O)[C@H](CO)NC(=O)[C@H](CCCNC(=N)N)N(C)C(=O)[C@@H](NC(C)=O)C(C)(C)SSC2(C)C)C(N)=O)C(=O)CCNC(=O)CCCCCC2(C)C(=CC=CC=CC3=[N+](CCCS(=O)(=O)[O-])c4ccc(S(=O)(=O)O)cc4C3(C)C)N(CCCS(=O)(=O)O)c3ccc(S(=O)(=O)O)cc32)C(N)=O)C(C)(C)SSC1(C)C (single isomer, unassigned) [Peptide X-Alexa 647]","Percent positive staining, Basophils",[1],87%
same,"Percent positive staining, CD4 memory T cells",[1],20%
same,"Percent positive staining, CD4 naïve T cells",[1],51%
same,"Percent positive staining, CD8 memory T cells",[1],36%
same,"Percent positive staining, CD8 naïve T cells",[1],52%
same,"Percent positive staining, CD19+ B cells",[1],78%
same,"Percent positive staining, Eosinophils",[1],92%
same,"Percent positive staining, Monocytes",[1],7%
same,"Percent positive staining, NK cells CD16+ 56+",[1],45%
same,"Percent positive staining, Neutrophils",[1],0.35%
same,Binding to α4β7+ and αEβ7+ CD4 memory T cells,αEβ7 integrin,"bound to α4β7^+, but not αEβ7^+ cells"
CC(=O)N[C@@H]1C(=O)N(C)[C@@H](CCCNC(=N)N)C(=O)N[C@@H](CO)C(=O)N[C@@H](CC(=O)O)C(=O)N[C@@H]([C@@H](C)O)C(=O)N[C@@H](CC(C)C)C(=O)N[C@H](C(=O)N[C@@H](Cc2ccc(C(C)(C)C)cc2)C(=O)N[C@@H](CCC(=O)O)CC(=O)N[C@H](CCCCNC(=O)CN(CC(=O)NCCCC[C@@H](NC(=O)C[C@H](CCC(=O)O)NC(=O)[C@H](Cc2ccc(C(C)(C)C)cc2)NC(=O)[C@H]2NC(=O)[C@H](CC(C)C)NC(=O)[C@H]([C@@H](C)O)NC(=O)[C@H](CC(=O)O)NC(=O)[C@H](CO)NC(=O)[C@H](CCCNC(=N)N)N(C)C(=O)[C@@H](NC(C)=O)C(C)(C)SSC2(C)C)C(N)=O)C(=O)CCNC(=O)CCOCCOCCOCCOCCNC(=O)CCCC[C@@H]2SC[C@@H]3NC(=O)N[C@@H]32)C(N)=O)C(C)(C)SSC1(C)C [Peptide X-biotin],KD lower than that for biotin-labeled vedolizumab,α4β7 integrin,3.8 fold
same,kd,α4β7 integrin,0.0000173 s⁻¹
same,kon,α4β7 integrin; read-out: ka,1120 M⁻¹ s⁻¹
"CC(=O)N[C@H]1CSSC[C@@H](C(=O)N[C@@H](CCCCNC(=O)CCOCCOCCOCCOCCOCCOCCOCCOCCOCCOCCOCCOCCOCCOCCOCCOCCOCCOCCOCCOCCOCCOCCOCCOCCOCCOCCC(=O)NCCCC[C@H](NC(=O)[C@@H]2CSSC[C@H](NC(C)=O)C(=O)N(C)[C@@H](CCCNC(=N)N)C(=O)N[C@@H](CO)C(=O)N[C@@H](CC(=O)O)C(=O)N[C@@H]([C@@H](C)O)C(=O)N[C@@H](CC(C)C)C(=O)N2)C(=O)O)C(=O)O)NC(=O)[C@H](CC(C)C)NC(=O)[C@H]([C@@H](C)O)NC(=O)[C@H](CC(=O)O)NC(=O)[C@H](CO)NC(=O)[C@H](CCCNC(=N)N)N(C)C1=O [compound 200, (Ac-C-N-Me-R-S-D-T-L-C-K-OH)2-PEG25] (I: Ac-C[NMeR]SDTLCK-OH / II: Ac-C[NMeR]SDTLCK-OH; disulfide I:1-I:7, II:1-II:7 (inferred); linker I:8-II:8 via X1 (inferred))",half-life at 22 μM,[2],0.133 h
same,half-life at 20 μM,[3],> 6 h
same,half-life at 20 μM,Plasma Stability Assay,1.47 h
"CC(=O)N[C@H]1CSSC(C)(C)[C@@H](C(=O)N[C@H](CCCCNC(=O)CN(CC(=O)NCCCC[C@@H](NC(=O)[C@H]2NC(=O)[C@H](CC(C)C)NC(=O)[C@H]([C@@H](C)O)NC(=O)[C@H](CC(=O)O)NC(=O)[C@H](CO)NC(=O)[C@H](CCCNC(=N)N)N(C)C(=O)[C@@H](NC(C)=O)CSSC2(C)C)C(N)=O)C(=O)CCN)C(N)=O)NC(=O)[C@H](CC(C)C)NC(=O)[C@H]([C@@H](C)O)NC(=O)[C@H](CC(=O)O)NC(=O)[C@H](CO)NC(=O)[C@H](CCCNC(=N)N)N(C)C1=O [compound 203, (Ac-C-N-Me-R-S-D-T-L-Pen-k-NH2)2-IDA]",half-life at 22 μM,[2],> 4.88 h
same,half-life at 20 μM,[3],> 6 h
same,half-life at 20 μM,Plasma Stability Assay,> 6 h
